Legend:
Assay type in all cases: biochemical
JAK1 = assay: JAK kinase autophosphorylation assay on immunoprecipitates (JAK1); conditions: immunoprecipitates from MDA-MB-468 or v-Src/NIH 3T3 cells; AG490 100 μM, PD180970 2 μM
Method: (§1) JAK Kinase Assays. A549, MDA-MB-468, and v-Src transformed NIH 3T3 cells were harvested, washed three times in PBS-V (10 mM sodium phosphate, pH 7.4, 137 mM NaCl, 1 mM sodium orthovanadate) then lysed for 30 min on ice in JAK kinase lysis buffer (25 mM Hepes, pH 7.4, 0.1% Triton-X-100, 0.5 mM DTT, 1 mM sodium orthovanadate, 1 mM PMSF, 10 μg/ml aprotinin, 10 μg/ml leupeptin). Samples were spun at high speed to clear, and 800-1000 μg of protein was immunoprecipitated per treatment condition with 50 ng of either JAK1 or JAK2 antibody (Santa Cruz Biotechnology) rocking overnight at 4° C. 25 μl of protein A/G PLUS agarose then was added and rocking continued for 1 hr at 4° C. Samples were spun to collect agarose pellet, and pellet washed twice in wash buffer (50 mM Hepes, pH 7.4, 0.1% Triton-X-100, 0.5 mM DTT, 150 mM NaCl) and once in phosphorylation buffer (50 mM Hepes, pH 7.4, 0.1% Triton-X-100, 0.5 mM DTI, 6.25 mM manganese chloride, 100 mM NaCl). Kinase reactions were performed at 30° C. for 15 min in a final volume of 100 μl of phosphorylation buffer. Samples were pretreated with DMSO control, JSI-124, and control compounds (AG490, 100 μM, and […], 2 μM) before addition of 20 μCi/sample y-[^32P]ATP. Reaction was halted using stop buffer (wash buffer plus 10 mM EDTA), samples spun to collect pellet, then pellet washed once with stop buffer and twice with wash buffer. Samples were then placed in 2×SDS-PAGE sample buffer, boiled at 100° C., and run on 8% SDS-PAGE gels to separate proteins. Autophosphorylation results were visualized by autoradiography.

JAK2 = molecular target: T1, JAK2 (Homo sapiens, UniProt O60674); assay: JAK kinase autophosphorylation assay on immunoprecipitates (JAK2); conditions: immunoprecipitates from A549, MDA-MB-468 or v-Src/NIH 3T3 cells; AG490 100 μM, PD180970 2 μM
T1 construct: Src, JAK1, and JAK2 were immunoprecipitated from either A549, MDA-MB-468, or v-Src/NIH 3T3 cells; endogenous in cells; host or cells: A549, MDA-MB-468, v-Src transformed NIH 3T3 (immunoprecipitates)
Method: as §1

Src = Src kinase autophosphorylation assay on immunoprecipitates; conditions: immunoprecipitates from A549, MDA-MB-468 or v-Src/NIH 3T3 cells
Method: Src Kinase Assay. A549, MDA-MB-468, and v-Src cells were harvested and lysed for 30 min on ice in RIPA150 buffer (10 mM Tris, pH 7.5, 150 mM NaCl, 10% glycerol, 5 mM EDTA, 1% Triton-X-100, 0.1% SDS, 100 μM sodium orthovanadate, 10 μg/ml aprotinin, 10 μg/ml leupeptin, 1 μg/ml antipain). Samples were spun at high speed to clear, then 1000 μg of protein were immunoprecipitated per treatment condition with 2 μg v-Src antibody (Ab-1, Oncogene Research Products, San Diego, Calif.) rocking overnight at 4° C. 25 μl of protein A/G PLUS agarose then was added and rocking continued for 4 hr at 4° C. Samples were spun to collect agarose pellet, and pellet washed three times in RIPA150 buffer, twice in RIPA10 buffer (10 mM Tris, pH 7.5, 10 mM NaCl, 10% glycerol, 5 mM EDTA, 1% Triton-X-100, 0.1% SDS, 100 μM sodium orthovanadate 10 μg/ml aprotinin, 10 μg/ml leupeptin, 1 μg/ml antipain), and three times in 40 mM Tris, pH 7.4. Pellet was then resuspended in 30 μl kinase reaction buffer (20 mM Tris, pH 7.4, 5 mM MgCl2) containing 10 μCi γ-[^32P]ATP. Inhibitors were preincubated for several minutes before the addition of the ATP. Kinase reactions were carried out at room temperature for 15 min. Reaction was stopped with the addition of 2×SDS-PAGE sample buffer. Samples were boiled and run on 10% SDS-PAGE gels. Autophosphorylation results were visualized by autoradiography.

T1 sequence (O60674 whole entry): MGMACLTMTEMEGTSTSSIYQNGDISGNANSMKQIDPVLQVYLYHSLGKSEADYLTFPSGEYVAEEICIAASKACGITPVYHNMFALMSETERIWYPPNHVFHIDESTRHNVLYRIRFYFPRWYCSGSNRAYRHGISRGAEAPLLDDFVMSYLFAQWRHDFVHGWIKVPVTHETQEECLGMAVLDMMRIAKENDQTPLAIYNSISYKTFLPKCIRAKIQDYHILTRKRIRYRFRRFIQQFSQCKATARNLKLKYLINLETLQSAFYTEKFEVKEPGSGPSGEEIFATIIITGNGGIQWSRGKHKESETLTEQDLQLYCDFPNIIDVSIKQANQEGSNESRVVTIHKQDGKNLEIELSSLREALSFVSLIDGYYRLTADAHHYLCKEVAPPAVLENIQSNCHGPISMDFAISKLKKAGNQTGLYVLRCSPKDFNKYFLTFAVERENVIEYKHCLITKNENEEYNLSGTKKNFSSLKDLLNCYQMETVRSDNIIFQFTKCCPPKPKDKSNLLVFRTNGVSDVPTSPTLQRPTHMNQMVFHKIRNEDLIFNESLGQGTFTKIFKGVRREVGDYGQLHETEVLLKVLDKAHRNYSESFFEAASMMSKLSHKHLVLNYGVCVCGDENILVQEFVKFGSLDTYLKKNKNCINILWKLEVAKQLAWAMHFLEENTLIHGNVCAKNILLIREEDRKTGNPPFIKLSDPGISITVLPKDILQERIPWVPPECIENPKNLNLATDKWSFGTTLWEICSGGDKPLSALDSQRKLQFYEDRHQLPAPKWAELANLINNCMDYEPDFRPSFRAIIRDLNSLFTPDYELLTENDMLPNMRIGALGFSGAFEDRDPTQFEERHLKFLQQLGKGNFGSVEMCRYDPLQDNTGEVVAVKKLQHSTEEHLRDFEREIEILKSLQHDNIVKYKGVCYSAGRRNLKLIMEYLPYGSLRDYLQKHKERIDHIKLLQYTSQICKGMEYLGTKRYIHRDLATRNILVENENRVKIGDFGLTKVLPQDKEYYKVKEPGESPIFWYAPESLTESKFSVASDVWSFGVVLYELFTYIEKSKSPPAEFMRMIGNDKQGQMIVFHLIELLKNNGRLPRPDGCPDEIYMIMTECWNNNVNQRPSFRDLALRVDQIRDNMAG

SMILES | JAK1 kinase activity (autophosphorylation) in vitro (JAK1) | JAK2 kinase activity (autophosphorylation) in vitro (JAK2) | Src kinase activity (autophosphorylation) in vitro (Src)
N#C/C(=C/c1ccc(O)c(O)c1)C(=O)NCc1ccccc1 [AG490] | inhibited JAK1 and JAK2 | inhibited JAK1 and JAK2 | not Src kinase activities
Cc1cc(Nc2ncc3cc(-c4c(Cl)cccc4Cl)c(=O)n(C)c3n2)ccc1F [PD180970] | not JAK1 or JAK2 activities | not JAK1 or JAK2 activities | inhibits Src
